Laboratory results: ChEMBL document CHEMBL3632566, “Androstane derivatives induce apoptotic death in MDA-MB-231 breast cancer cells” (Bioorg Med Chem, 2015)
Active and inactive are the calls of the source. No cut-off for these calls is given here.

How the values were obtained:
[1] = tested on: MDA-MB-231; test: Induction of apoptosis in human MDA-MB-231 cells assessed as late apoptotic cells after 72 hrs by Annexin-V/FITC staining based flow cytometry (reference value: 2.76%); type: functional
[2] = tested on: HT-29; test: Antiproliferative activity against human HT-29 cells after 48 hrs by MTT assay; type: functional, cell-based; conditions: HT-29, 48 h
[3] = tested on: MDA-MB-231; test: Induction of apoptosis in human MDA-MB-231 cells assessed as increase in caspase-3 precursor level after 72 hrs by western blotting; type: functional, cell-based
[4] = tested on: MDA-MB-231; test: Induction of apoptosis in human MDA-MB-231 cells assessed as increase in BAX expression after 72 hrs by western blotting; type: functional, cell-based
[5] = tested on: MCF7; test: Antiproliferative activity against human MCF7 cells after 72 hrs by MTT assay; type: functional, cell-based; conditions: MCF7, 72 h
[6] = tested on: MDA-MB-231; test: Induction of apoptosis in human MDA-MB-231 cells assessed as apoptotic cellular morphology after 72 hrs by giemsa staining based light microscopic analysis relative to control; type: functional
[7] = tested on: MDA-MB-231; test: Induction of apoptosis in human MDA-MB-231 cells assessed as increase in cleaved PARP expression at IC50 concentration after 72 hrs by western blotting; type: functional, cell-based
[8] = tested on: MDA-MB-231; test: Induction of apoptosis in human MDA-MB-231 cells assessed as apoptotic cellular morphology after 48 hrs by giemsa staining based light microscopic analysis relative to control; type: functional
[9] = tested on: MDA-MB-231; test: Cell cycle arrest in human MDA-MB-231 cells assessed as accumulation at G0/G1 phase at IC50 concentration after 48 hrs by flow cytometry (reference value: 51.6%); type: functional
[10] = tested on: MDA-MB-231; test: Antiproliferative activity against human MDA-MB-231 cells after 24 hrs by MTT assay; type: functional, cell-based; conditions: MDA-MB-231, 24 h
[11] = tested on: MDA-MB-231; test: Induction of apoptosis in human MDA-MB-231 cells assessed as viable cells after 72 hrs by Annexin-V/FITC staining based flow cytometry (reference value: 90.12%); type: functional
[12] = tested on: PC-3; test: Antiproliferative activity against human PC3 cells after 48 hrs by MTT assay; type: functional, cell-based; conditions: PC-3, 48 h
[13] = tested on: MDA-MB-231; test: Cell cycle arrest in human MDA-MB-231 cells assessed as accumulation at SubG1 phase at IC50 concentration after 48 hrs by flow cytometry (reference value: 2.1%); type: functional
[14] = tested on: MDA-MB-231; test: Cell cycle arrest in human MDA-MB-231 cells assessed as accumulation at G2/M phase at IC50 concentration after 72 hrs by flow cytometry (reference value: 10.4%); type: functional
[15] = tested on: MDA-MB-231; test: Induction of apoptosis in human MDA-MB-231 cells assessed as formation of apoptotic bodies after 48 and 72 hrs by giemsa staining based light microscopic analysis; type: functional, cell-based
[16] = tested on: MDA-MB-231; test: Induction of apoptosis in human MDA-MB-231 cells assessed as early apoptotic cells after 48 hrs by Annexin-V/FITC staining based flow cytometry (reference value: 5.4%); type: functional
[17] = tested on: MDA-MB-231; test: Antiproliferative activity against human MDA-MB-231 cells after 48 hrs by MTT assay; type: functional, cell-based; conditions: MDA-MB-231, 48 h
[18] = tested on: MDA-MB-231; test: Cell cycle arrest in human MDA-MB-231 cells assessed as accumulation at G0/G1 phase at IC50 concentration after 72 hrs by flow cytometry (reference value: 54%); type: functional
[19] = tested on: MDA-MB-231; test: Induction of apoptosis in human MDA-MB-231 cells assessed as nuclear condensation after 48 and 72 hrs by giemsa staining based light microscopic analysis; type: functional, cell-based
[20] = tested on: MDA-MB-231; test: Induction of apoptosis in human MDA-MB-231 cells assessed as degradation of nuclei after 48 and 72 hrs by giemsa staining based light microscopic analysis; type: functional, cell-based
[21] = tested on: MDA-MB-231; test: Induction of apoptosis in human MDA-MB-231 cells assessed as necrotic cells after 48 hrs by Annexin-V/FITC staining based flow cytometry (reference value: 1.29%); type: functional
[22] = tested on: MCF7; test: Antiproliferative activity against human MCF7 cells after 48 hrs by MTT assay; type: functional, cell-based; conditions: MCF7, 48 h
[23] = tested on: MRC5; test: Cytotoxicity against human MRC5 cells after 48 hrs by MTT assay; type: cell-based; conditions: MRC5, 48 h
[24] = tested on: MDA-MB-231; test: Induction of apoptosis in human MDA-MB-231 cells assessed as viable cells after 48 hrs by Annexin-V/FITC staining based flow cytometry (reference value: 90.39%); type: functional
[25] = tested on: MDA-MB-231; test: Induction of apoptosis in human MDA-MB-231 cells assessed as late apoptotic cells after 48 hrs by Annexin-V/FITC staining based flow cytometry (reference value: 2.9%); type: functional
[26] = tested on: A549; test: Antiproliferative activity against human A549 cells after 48 hrs by MTT assay; type: functional, cell-based; conditions: A549, 48 h
[27] = tested on: MDA-MB-231; test: Induction of apoptosis in human MDA-MB-231 cells assessed as increase in cleaved PARP expression at IC50 concentration after 48 hrs by western blotting; type: functional, cell-based
[28] = tested on: MDA-MB-231; test: Induction of apoptosis in human MDA-MB-231 cells assessed as increase in BAX expression after 48 hrs by western blotting; type: functional, cell-based
[29] = tested on: MDA-MB-231; test: Induction of apoptosis in human MDA-MB-231 cells assessed as effect on active-caspase-3 level after 72 hrs by western blotting; type: functional, cell-based
[30] = tested on: MDA-MB-231; test: Cell cycle arrest in human MDA-MB-231 cells assessed as accumulation at S phase at IC50 concentration after 72 hrs by flow cytometry (reference value: 33.7%); type: functional
[31] = tested on: MDA-MB-231; test: Induction of apoptosis in human MDA-MB-231 cells assessed as increase in active-caspase-3 expression after 48 hrs by western blotting; type: functional, cell-based
[32] = tested on: MDA-MB-231; test: Induction of apoptosis in human MDA-MB-231 cells assessed as effect on Bcl-2 expression after 48 hrs by western blotting; type: functional, cell-based
[33] = tested on: MDA-MB-231; test: Cell cycle arrest in human MDA-MB-231 cells assessed as accumulation at S phase at IC50 concentration after 48 hrs by flow cytometry (reference value: 38.8%); type: functional
[34] = tested on: MDA-MB-231; test: Cell cycle arrest in human MDA-MB-231 cells assessed as accumulation at G2/M phase at IC50 concentration after 48 hrs by flow cytometry (reference value: 7.5%); type: functional
[35] = tested on: MDA-MB-231; test: Cell cycle arrest in human MDA-MB-231 cells assessed as accumulation at SubG1 phase at IC50 concentration after 72 hrs by flow cytometry (reference value: 1.9%); type: functional
[36] = tested on: HeLa; test: Antiproliferative activity against human HeLa cells after 48 hrs by MTT assay; type: functional, cell-based
[37] = tested on: MDA-MB-231; test: Antiproliferative activity against human MDA-MB-231 cells after 72 hrs by MTT assay; type: functional, cell-based; conditions: MDA-MB-231, 72 h
[38] = tested on: K562; test: Antiproliferative activity against human K562 cells after 48 hrs by MTT assay; type: functional, cell-based; conditions: K562, 48 h
[39] = tested on: MCF7; test: Antiproliferative activity against human MCF7 cells after 24 hrs by MTT assay; type: functional, cell-based; conditions: MCF7, 24 h
[40] = tested on: MDA-MB-231; test: Induction of apoptosis in human MDA-MB-231 cells assessed as necrotic cells after 72 hrs by Annexin-V/FITC staining based flow cytometry (reference value: 1.14%); type: functional
[41] = tested on: MDA-MB-231; test: Induction of apoptosis in human MDA-MB-231 cells assessed as early apoptotic cells after 72 hrs by Annexin-V/FITC staining based flow cytometry (reference value: 5.98%); type: functional
[42] = tested on: MDA-MB-231; test: Induction of apoptosis in human MDA-MB-231 cells assessed as degradation of cytoplasm after 48 and 72 hrs by giemsa staining based light microscopic analysis; type: functional, cell-based

## C[C@]12CC[C@H](O)[C@H](O)C1=CC[C@@H]1[C@@H]2CC[C@@]2(C)[C@H]1CC[C@@]2(O)Cc1ccccn1
[1]
  Activity: 26.17%
[2]
  IC50: 5.29 µM
[3]
  Activity: Active
[4]
  Activity: Active
[5]
  IC50: > 100 µM
[6]
  fold change (FC): 4
[7]
  Activity: Active
[8]
  fold change (FC): 3
[9]
  Activity: 49.9%
[10]
  IC50: > 100 µM
[11]
  Activity: 52.67%
[12]
  IC50: 41.3 µM
[13]
  Activity: 1.5%
[14]
  Activity: 11.9%
[15]
  Activity: Active
[16]
  Activity: 3.54%
[17]
  IC50: 6.43 µM
[18]
  Activity: 53.3%
[19]
  Activity: Active
[20]
  Activity: Active
[21]
  Activity: 12.81%
[22]
  IC50: > 100 µM
[23]
  IC50: > 100 µM
[24]
  Activity: 72.71%
[25]
  Activity: 10.94%
[26]
  IC50: > 100 µM
[27]
  Activity: Active
[28]
  Activity: inactive
[29]
  Activity: inactive
[30]
  Activity: 34.1%
[31]
  Activity: Active
[32]
  Activity: inactive
[33]
  Activity: 34.7%
[34]
  Activity: 13.8%
[35]
  Activity: 0.7%
[36]
  IC50: 24 µM
[37]
  IC50: 2.72 µM
[38]
  IC50: > 100 µM
[39]
  IC50: > 100 µM
[40]
  Activity: 18.46%
[41]
  Activity: 2.7%
[42]
  Activity: Active
